Test results: US11339161B2, “Triazolo pyridines as modulators of gamma-secretase” (Boehringer Ingelheim International GmbH, priority 2017, dated 2022)
Read-outs that look alike come from different tables or passages of the source.

Experiments:
CDK5/p35 = CDK5/p35 (Homo sapiens, UniProt Q00535); experiment: Z'-LYTE SelectScreen biochemical kinase assay CDK5/p35
From the text: (§1) Thermo Fisher Scientific SelectScreen™ Biochemical Kinase Profiling Service Z′-LYTE™ Screening Protocol and Assay Conditions Assay Theory
(§2) The […] biochemical assay employs a fluorescence-based, coupled-enzyme format and is based on the differential sensitivity of phosphorylated and non-phosphorylated peptides to proteolytic cleavage. The peptide substrate is labeled with two fluorophores—one at each end—that make up a FRET pair. In the primary reaction, the kinase transfers the gamma-phosphate of ATP to a single tyrosine, serine or threonine residue in a synthetic FRET-peptide. In the secondary reaction, a site-specific protease recognizes and cleaves non-phosphorylated FRET-peptides. Phosphorylation of FRET-peptides suppresses cleavage by the Development Reagent. Cleavage disrupts FRET between the donor (i.e., coumarin) and acceptor (i.e., fluorescein) fluorophores on the FRET-peptide, whereas uncleaved, phosphorylated FRET-peptides maintain FRET. A ratiometric method, which calculates the ratio (Emission Ratio=Coumarin emission (445 nm)/Fluorescein emission (520 nm)) of donor emission to acceptor emission after excitation of the donor fluorophore at 400 nm, is used to quantitate reaction progress, as shown in the equation below. A significant benefit of this ratiometric method for quantitating reaction progress is the elimination of well-to-well variations in FRET-peptide concentration and signal intensities. As a result, the assay yields very high Z′-factor values (>0.7) at a low percent phosphorylation. Both cleaved and uncleaved FRET-peptides contribute to the fluorescence signals and therefore to the Emission Ratio. The extent of phosphorylation of the FRET-peptide can be calculated from the Emission Ratio. The Emission Ratio will remain low if the FRET-peptide is phosphorylated (i.e., no kinase inhibition) and will be high if the FRET-peptide is non-phosphorylated (i.e., kinase inhibition).
(§3) The Test Compounds are screened in 1% DMSO (final) in the well. For 10 point titrations, 3-fold serial dilutions are conducted from the starting concentration of the customer's choosing.
(§4) All Peptide/Kinase Mixtures are diluted to a 2× working concentration in the appropriate Kinase Buffer (see section Kinase Specific Assay Conditions for a complete description).
(§5) All ATP Solutions are diluted to a 4× working concentration in Kinase Buffer (50 mM HEPES pH 7.5, 0.01% BRIJ-35, 10 mM MgCl2, 1 mM EGTA). ATP Km apparent is previously determined using a Z″-LYTE assay.
(§6) The Development Reagent is diluted in Development Buffer (see section Kinase-Specific Assay Conditions—Direct and Cascade for a complete description).
(§7) Bar-coded Corning, low volume NBS, black 384-well plate (Corning Cat. #4514) • 1. 100 nL—100× Test Compound in 100% DMSO • 2. 2.4 μL—Kinase buffer • 3. 5 μL—2× Peptide/Kinase Mixture • 4. 2.5 μL—4×ATP Solution • 5. 30—second plate shake • 6. 60—minute Kinase Reaction incubation at room temperature • 7. 5 μL—Development Reagent Solution • 8. 30—second plate shake • 9. 60—minute Development Reaction incubation at room temperature • 10. Read on fluorescence plate reader and analyze the data Z′-LYTE Assay Controls
(§8) SelectScreen Kinase Profiling Service uses XLfit from IDBS. The dose response curve is curve fit to model number 205 (sigmoidal dose-response model).
(§9) The 2×CDK5/p35/Ser/Thr 12 mixture is prepared in 50 mM HEPES pH 7.5, 0.01% BRIJ-35, 10 mM MgCl2, 1 mM EGTA. The final 10 μL Kinase Reaction consists of 0.14-1.3 ng CDK5/p35 and 2 μM Ser/Thr 12 in 50 mM HEPES pH 7.5, 0.01% BRIJ-35, 10 mM MgCl2, 1 mM EGTA. After the 1 hour Kinase Reaction incubation, 5 μL of a 1:4096 dilution of Development Reagent A is added.

PDGFRA (PDGFR alpha) = PDGFRA (PDGFR alpha) (Homo sapiens, UniProt P16234); experiment: Z'-LYTE SelectScreen biochemical kinase assay PDGFRA (PDGFR alpha)
From the text: as §1, §2, §3, §4, §5, §6, §7, §8
The 2×PDGFRA (PDGFR alpha)/Tyr 04 mixture is prepared in 50 mM HEPES pH 7.5, 0.01% BRIJ-35, 10 mM MgCl2, 4 mM MnCl2, 1 mM EGTA, 2 mM DTT. The final 10 μL Kinase Reaction consists of 1.54-22.6 ng PDGFRA (PDGFR alpha) and 2 μM Tyr 04 in 50 mM HEPES pH 7.5, 0.01% BRIJ-35, 10 mM MgCl2, 2 mM MnCl2, 1 mM EGTA, 1 mM DTT. After the 1 hour Kinase Reaction incubation, 5 μL of a 1:64 dilution of Development Reagent B is added.

RET = RET (Homo sapiens, UniProt P07949); experiment: Z'-LYTE SelectScreen biochemical kinase assay RET
From the text: as §1, §2, §3, §4, §5, §6, §7, §8
as §9, with “2×RET/Tyr 02” for “2×CDK5/p35/Ser/Thr 12”, “0.49-3.64” for “0.14-1.3”, “RET” for “CDK5/p35”, “Tyr 02” for “Ser/Thr 12”, “1:128” for “1:4096”

KDR (VEGFR2) = KDR (VEGFR2) (Homo sapiens, UniProt P35968); experiment: Z'-LYTE SelectScreen biochemical kinase assay KDR (VEGFR2)
From the text: as §1, §2, §3, §4, §5, §6, §7, §8
The 2×KDR (VEGFR2)/Tyr 01 mixture is prepared in 50 mM HEPES pH 7.5, 0.01% BRIJ-35, 10 mM MgCl2, 1 mM EGTA. The final 10 μL Kinase Reaction consists of 1-30 ng KDR (VEGFR2) and 2 μM Tyr 01 in 50 mM HEPES pH 7.5, 0.01% BRIJ-35, 10 mM MgCl2, 1 mM EGTA. After the 1 hour Kinase Reaction incubation, 5 μL of a 1:256 dilution of Development Reagent B is added.

[1] = 10 μmolar compound concentration, ATP at Km app, read-out: CDK5/p35 inhibition
[2] = 10 μmolar compound concentration, ATP at Km app, read-out: PDGFRA (PDGFR alpha) inhibition
[3] = 10 μmolar compound concentration, ATP at Km app, read-out: RET inhibition
[4] = 10 μmolar compound concentration, ATP at Km app, read-out: KDR (VEGFR2) inhibition
[5] = read-out: % Inhibition mean CDK5/p35
[6] = read-out: % Inhibition mean PDGFRA (PDGFR alpha)
[7] = read-out: % Inhibition mean RET
[8] = read-out: % Inhibition mean KDR (VEGFR2)

RET, sequence (P07949 29-1114): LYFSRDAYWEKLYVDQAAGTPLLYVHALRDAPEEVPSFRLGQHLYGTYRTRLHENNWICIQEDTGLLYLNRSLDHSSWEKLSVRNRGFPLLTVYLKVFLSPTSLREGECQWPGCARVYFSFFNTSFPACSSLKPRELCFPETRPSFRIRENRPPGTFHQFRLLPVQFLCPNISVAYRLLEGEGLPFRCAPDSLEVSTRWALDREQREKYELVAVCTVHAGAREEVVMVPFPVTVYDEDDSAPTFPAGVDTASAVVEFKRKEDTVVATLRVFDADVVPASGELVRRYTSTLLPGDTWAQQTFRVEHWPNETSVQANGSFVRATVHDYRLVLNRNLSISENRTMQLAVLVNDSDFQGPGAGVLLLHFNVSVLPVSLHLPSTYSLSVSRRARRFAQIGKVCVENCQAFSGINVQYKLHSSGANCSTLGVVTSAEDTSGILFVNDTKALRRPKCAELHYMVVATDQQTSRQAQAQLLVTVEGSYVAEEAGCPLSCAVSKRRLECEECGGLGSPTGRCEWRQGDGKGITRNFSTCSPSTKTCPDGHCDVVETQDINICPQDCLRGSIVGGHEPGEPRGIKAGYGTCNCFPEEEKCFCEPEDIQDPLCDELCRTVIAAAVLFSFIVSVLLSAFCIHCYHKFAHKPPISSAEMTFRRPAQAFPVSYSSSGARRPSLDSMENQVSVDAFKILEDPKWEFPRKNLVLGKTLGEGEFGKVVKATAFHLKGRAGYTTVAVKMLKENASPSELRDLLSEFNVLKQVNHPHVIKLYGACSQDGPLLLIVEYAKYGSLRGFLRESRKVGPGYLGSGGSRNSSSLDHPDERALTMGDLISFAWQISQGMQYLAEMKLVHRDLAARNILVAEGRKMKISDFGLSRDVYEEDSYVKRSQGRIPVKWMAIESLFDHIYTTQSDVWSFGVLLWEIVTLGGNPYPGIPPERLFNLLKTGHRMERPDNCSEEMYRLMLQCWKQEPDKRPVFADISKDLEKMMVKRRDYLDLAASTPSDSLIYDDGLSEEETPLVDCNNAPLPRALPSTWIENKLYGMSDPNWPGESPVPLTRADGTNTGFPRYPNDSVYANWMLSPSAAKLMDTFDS
CDK5/p35, sequence (Q00535 whole entry): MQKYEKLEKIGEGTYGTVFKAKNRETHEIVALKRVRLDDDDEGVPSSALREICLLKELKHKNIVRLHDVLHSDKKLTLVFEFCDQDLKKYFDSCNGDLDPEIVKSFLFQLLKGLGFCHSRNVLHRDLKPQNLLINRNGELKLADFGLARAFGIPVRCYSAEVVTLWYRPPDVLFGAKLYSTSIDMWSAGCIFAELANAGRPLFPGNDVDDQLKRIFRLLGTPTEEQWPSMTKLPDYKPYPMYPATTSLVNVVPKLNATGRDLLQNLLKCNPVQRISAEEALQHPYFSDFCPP
CDK5/p35, sequence (Q15078 whole entry partner): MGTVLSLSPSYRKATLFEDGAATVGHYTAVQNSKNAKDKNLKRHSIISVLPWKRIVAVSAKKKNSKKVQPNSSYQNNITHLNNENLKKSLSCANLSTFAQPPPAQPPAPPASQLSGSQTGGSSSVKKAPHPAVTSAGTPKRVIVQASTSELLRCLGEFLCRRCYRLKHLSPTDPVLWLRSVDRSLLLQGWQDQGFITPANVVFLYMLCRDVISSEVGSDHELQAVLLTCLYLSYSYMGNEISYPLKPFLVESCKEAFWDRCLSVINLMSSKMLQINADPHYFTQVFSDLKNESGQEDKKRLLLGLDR
PDGFRA (PDGFR alpha), sequence (P16234 24-1089): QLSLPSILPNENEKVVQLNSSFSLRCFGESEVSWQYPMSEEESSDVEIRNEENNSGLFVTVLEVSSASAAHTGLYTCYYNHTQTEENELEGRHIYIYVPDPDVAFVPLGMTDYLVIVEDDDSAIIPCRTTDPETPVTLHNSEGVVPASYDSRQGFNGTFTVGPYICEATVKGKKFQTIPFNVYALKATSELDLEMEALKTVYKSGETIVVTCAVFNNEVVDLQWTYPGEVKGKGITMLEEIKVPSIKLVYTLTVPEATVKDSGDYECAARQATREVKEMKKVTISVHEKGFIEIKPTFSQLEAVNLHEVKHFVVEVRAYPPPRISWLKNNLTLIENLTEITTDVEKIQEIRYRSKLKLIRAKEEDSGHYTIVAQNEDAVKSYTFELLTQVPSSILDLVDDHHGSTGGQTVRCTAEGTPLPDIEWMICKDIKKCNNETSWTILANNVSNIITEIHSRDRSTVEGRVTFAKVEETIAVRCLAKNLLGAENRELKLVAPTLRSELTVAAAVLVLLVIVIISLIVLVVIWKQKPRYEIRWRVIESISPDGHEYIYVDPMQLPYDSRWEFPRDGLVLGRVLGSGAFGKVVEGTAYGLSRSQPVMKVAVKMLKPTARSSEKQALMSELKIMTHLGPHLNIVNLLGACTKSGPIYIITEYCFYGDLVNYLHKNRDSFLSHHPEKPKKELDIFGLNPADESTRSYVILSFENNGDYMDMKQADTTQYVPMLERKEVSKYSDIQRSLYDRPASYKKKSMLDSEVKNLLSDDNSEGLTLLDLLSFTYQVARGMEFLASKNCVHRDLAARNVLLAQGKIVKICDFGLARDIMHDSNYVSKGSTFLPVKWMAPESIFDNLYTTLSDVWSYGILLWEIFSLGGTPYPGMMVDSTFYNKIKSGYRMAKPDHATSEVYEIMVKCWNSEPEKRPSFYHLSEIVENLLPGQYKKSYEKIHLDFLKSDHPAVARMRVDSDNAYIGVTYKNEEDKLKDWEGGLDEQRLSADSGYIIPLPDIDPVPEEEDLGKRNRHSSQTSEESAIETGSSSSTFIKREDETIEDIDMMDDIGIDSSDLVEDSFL
KDR (VEGFR2), sequence (P35968 20-1356): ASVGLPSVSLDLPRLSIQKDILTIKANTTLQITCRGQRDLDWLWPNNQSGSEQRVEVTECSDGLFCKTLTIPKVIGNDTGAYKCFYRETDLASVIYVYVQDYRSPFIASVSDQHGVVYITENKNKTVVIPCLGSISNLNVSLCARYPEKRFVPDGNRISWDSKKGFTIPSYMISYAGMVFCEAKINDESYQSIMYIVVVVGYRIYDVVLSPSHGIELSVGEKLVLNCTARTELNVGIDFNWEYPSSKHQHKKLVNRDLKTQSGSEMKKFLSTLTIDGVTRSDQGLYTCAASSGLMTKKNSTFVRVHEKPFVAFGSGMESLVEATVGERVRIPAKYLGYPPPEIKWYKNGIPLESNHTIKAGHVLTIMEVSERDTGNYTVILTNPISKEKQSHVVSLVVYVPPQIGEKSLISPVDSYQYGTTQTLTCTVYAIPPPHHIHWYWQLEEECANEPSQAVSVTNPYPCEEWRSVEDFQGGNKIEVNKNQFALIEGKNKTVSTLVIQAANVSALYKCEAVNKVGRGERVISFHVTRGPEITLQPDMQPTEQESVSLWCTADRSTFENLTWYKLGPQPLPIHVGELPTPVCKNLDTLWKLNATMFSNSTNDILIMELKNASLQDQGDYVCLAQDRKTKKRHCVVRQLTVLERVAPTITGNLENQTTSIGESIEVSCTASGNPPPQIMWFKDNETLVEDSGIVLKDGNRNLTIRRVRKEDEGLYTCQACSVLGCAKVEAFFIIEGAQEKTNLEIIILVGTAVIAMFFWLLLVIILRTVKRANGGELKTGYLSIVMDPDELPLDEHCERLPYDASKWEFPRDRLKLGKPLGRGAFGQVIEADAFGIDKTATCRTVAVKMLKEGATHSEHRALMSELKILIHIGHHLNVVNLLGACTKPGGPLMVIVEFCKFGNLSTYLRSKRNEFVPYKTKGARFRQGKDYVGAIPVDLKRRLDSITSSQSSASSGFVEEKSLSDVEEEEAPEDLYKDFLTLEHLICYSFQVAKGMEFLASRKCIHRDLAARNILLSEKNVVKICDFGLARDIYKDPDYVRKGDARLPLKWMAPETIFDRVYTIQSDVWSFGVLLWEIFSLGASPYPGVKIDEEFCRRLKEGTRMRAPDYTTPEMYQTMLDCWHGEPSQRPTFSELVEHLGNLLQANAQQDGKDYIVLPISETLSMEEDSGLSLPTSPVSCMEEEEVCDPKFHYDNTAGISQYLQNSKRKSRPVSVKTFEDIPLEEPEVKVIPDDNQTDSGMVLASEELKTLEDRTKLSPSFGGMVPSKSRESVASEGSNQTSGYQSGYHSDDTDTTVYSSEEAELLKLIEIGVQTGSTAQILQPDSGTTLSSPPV

Row | SMILES | inhibition at 10 µM (CDK5/p35; [1]) | inhibition at 10 µM (CDK5/p35; read-out: % Inhibition mean) | inhibition at 10 µM (PDGFRA (PDGFR alpha); [2]) | inhibition at 10 µM (PDGFRA (PDGFR alpha); read-out: % Inhibition mean) | inhibition at 10 µM (RET; [3]) | inhibition at 10 µM (RET; read-out: % Inhibition mean) | inhibition at 10 µM (KDR (VEGFR2); [4]) | inhibition at 10 µM (KDR (VEGFR2); read-out: % Inhibition mean) | inhibition at 10 µM (CDK5/p35; [5]) | inhibition at 10 µM (PDGFRA (PDGFR alpha); [6]) | inhibition at 10 µM (RET; [7]) | inhibition at 10 µM (KDR (VEGFR2); [8])
1 | Fc1cccc(-c2cccn3nc(Nc4ccc5[nH]cnc5c4)nc23)c1 [Cpd. 293 in WO09155551, reference compound] | > 80% | 90% | > 80% | 88% | > 80% | 94% | > 80% | 98% |  |  |  | 
2 | CCn1ncc2c1CCC(Nc1nc3c(-c4cccnc4)cccn3n1)C2 (stereo not shown) [Example 63, (1-Ethyl-4,5,6,7-tetrahydro-1H-indazol-5-yl)-(8-pyridin-3-yl-[1,2,4]triazolo[1,5-a]pyridine-2-yl)-amine] | 40 to 80% |  | < 40% |  | < 40% |  | < 40% |  | 47% | 20% | 20% | 8%
3 | CCn1ncc2c1CCC(Nc1nc3c(-c4ccc(F)cc4C)cccn3n1)C2 (stereo not shown) [Example 42, (1-Ethyl-4,5,6,7-tetrahydro-1H-indazol-5-yl)-[8-(4-fluoro-2-methyl-phenyl)-[1,2,4]triazolo[1,5-a]pyridine-2-yl]-amine] | < 40% |  | < 40% |  | < 40% |  | < 40% |  | 39% | 12% | 29% | -3%
4 | CC1(C)C(=O)Nc2ccc(Nc3nc4c(-c5cccc(F)c5)cccn4n3)cc21 [Cpd. 263 in WO09155551, reference compound] | > 80% | 83% | > 80% | 86% | > 80% | 96% | > 80% | 99% |  |  |  | 
5 | CCn1ncc2c1CCC(Nc1nc3c(-c4cccnc4OC)cccn3n1)C2 (stereo not shown) [Example 69, (1-Ethyl-4,5,6,7-tetrahydro-1H-indazol-5-yl)-[8-(2-methoxy-pyridin-3-yl)-[1,2,4]triazolo[1,5-a]pyridine-2-yl]-amine] | < 40% |  | < 40% |  | < 40% |  | < 40% |  | 28% | 17% | 16% | 8%

Further lines, results first:

Row | inhibition at 10 µM (CDK5/p35; [1]) | inhibition at 10 µM (CDK5/p35; read-out: % Inhibition mean) | inhibition at 10 µM (PDGFRA (PDGFR alpha); [2]) | inhibition at 10 µM (PDGFRA (PDGFR alpha); read-out: % Inhibition mean) | inhibition at 10 µM (RET; [3]) | inhibition at 10 µM (RET; read-out: % Inhibition mean) | inhibition at 10 µM (KDR (VEGFR2); [4]) | inhibition at 10 µM (KDR (VEGFR2); read-out: % Inhibition mean) | inhibition at 10 µM (CDK5/p35; [5]) | inhibition at 10 µM (PDGFRA (PDGFR alpha); [6]) | inhibition at 10 µM (RET; [7]) | inhibition at 10 µM (KDR (VEGFR2); [8]) | SMILES
6 | 40 to 80% |  | < 40% |  | 40 to 80% |  | < 40% |  | 56% | 23% | 62% | 8% | CCn1ncc2c1CCC(Nc1nc3c(-c4cncc(Cl)c4)cccn3n1)C2 (stereo not shown) [Example 73, [8-(5-Chloro-pyridin-3-yl)-[1,2,4]triazolo[1,5-a]pyridine-2-yl]-(1-ethyl-4,5,6,7-tetrahydro-1H-indazol-5-yl)-amine]
7 | < 40% |  | < 40% |  | < 40% |  | < 40% |  | 10% | 13% | 23% | -15% | CCn1ncc2c1CC[C@H](Nc1nc3c(-c4ccc(F)c(Cl)c4)cccn3n1)C2 [Example S-61, (S)-[8-(3-Chloro-4-fluoro-phenyl)-[1,2,4]triazolo[1,5-a]pyridine-2-yl]-(1-ethyl-4,5,6,7-tetrahydro-1H-indazol-5-yl)-amine]
8 | < 40% |  | < 40% |  | < 40% |  | < 40% |  | 39% | 18% | 23% | 10% | CCn1ncc2c1CC[C@@H](Nc1nc3c(-c4ccc(F)cc4C)cccn3n1)C2 [Example R-42, (R)-(1-Ethyl-4,5,6,7-tetrahydro-1H-indazol-5-yl)-[8-(4-fluoro-2-methyl-phenyl)-[1,2,4]triazolo[1,5-a]pyridine-2-yl]-amine]
